The text below walks through data of EPA's ToxValDB 9.5.

Where “and” joins values, the source holds several entries; their conditions need not be identical. Equal values may be shown once.

One series deals with Oryctolagus sp. In words: LD0; higher = less toxic. To be noted: acute; dermal; New Zealand.
Series [1] has as its system Rattus norvegicus. The following applies: acute.
The subject of series [2] is Rattus norvegicus. In words: LD0; higher = less toxic. To be noted: acute; oral; gavage.
In a further series the test system is Mus musculus. To be noted: acute; inhalation.
Another series has as its system Gallus sp. The following applies: repeat dose other; oral.
Another series concerns Canidae. To be noted: acute; duration: 10 minutes; inhalation; unknown; Dog Other; Whole Body: Seizures.
Series [3] has as its system Rattus norvegicus. To be noted: inhalation.
Series [4] deals with Rattus norvegicus. The following applies: subchronic; duration: 13 weeks; inhalation; M/F; respiratory.
The test system of a further series is Homo sapiens. To be noted: clinical; duration: 60 minutes; inhalation; M/F; respiratory.
The test system of series [5] is Rattus norvegicus. To be noted: subchronic, oral, gavage, Fischer 344, Deaths + Body Weight Changes: decrease + Hematology: Hct increase, RBC increase, WBC increase, Hgb increase, Ret increase, Nucleated ….
In series [6] the test system is Rattus norvegicus. The following applies: M/F.
The test system of series [7] is Rattus norvegicus. In words: FEL; higher = less toxic. The following applies: chronic; oral; gavage; M/F; reduced survival.
[8] abbreviates: reproduction developmental, duration: 9 days, F, Crl:CD(SD), generation: P0, P0: Skin: Stained Fur + P0: Whole Body: Body Weight Change + P0: Whole Body: Convulsions + P0: Whole Body: Feed Consumption, Absolute.
The mark [9] stands for this setting: reproduction developmental, duration: 9 days, M/F, Crl:CD(SD), generation: F1, F1: Whole Body: Pup Weight Relative to Litter.
[10] abbreviates: reproduction developmental, duration: 107 days, M, Crj:CD, generation: P0, P0: Whole Body: Clonic Seizures + P0: Whole Body: Mortality.
Where [11] appears, read: reproduction developmental, duration: 121 days, F, Crl:CD(SD), generation: P0, P0: Liver: Liver Weight, Absolute + P0: Liver: Liver Weight, Relative + P0: Pituitary: Pituitary Gland Weight, Absolute + P0: Pituitary: ….
Where [12] appears, read: subchronic, duration: 90 days, F, Crl:CD(SD) BR, Blood: Albumin (A) + Renal: Urine Osmolality + Renal: Urine Volume (UVOL) + Whole Body: Motor Activity.
Where [13] appears, read: subchronic, duration: 90 days, F, Crl:CD(SD) BR, Central Nervous System: Abnormal Behavior.
Setting [14] is: subchronic, duration: 90 days, M, Crl:CD(SD) BR, Blood: Albumin (A) + Whole Body: Motor Activity.
Where [15] appears, read: subchronic, duration: 90 days, M, Crl:CD(SD) BR, Central Nervous System: Abnormal Behavior.

`CC12C=CC(C1)C1C(=O)OC(=O)C12` (stereo not given) [1,2,3,6-Tetrahydromethyl-3,6-methanophthalic anhydride] had an LD0 in the series with Oryctolagus sp. greater than 2000 mg/kg. Also, the LD50 (commonly the dose at which mortality reaches 50%) in the series with Rattus norvegicus [1] (dermal) is 4920 mg/kg and ≥ 3670 mg/kg and ≤ 6590 mg/kg; in the series with Rattus norvegicus [1] (oral), 914 mg/kg; in the series on Rattus norvegicus [1] (oral, gavage, Sprague-Dawley), 958 mg/kg and ≥ 856 mg/kg and ≤ 1080 mg/kg.
Turning to `FC(F)(Cl)C(F)(F)Cl` [1,2-Dichloro-1,1,2,2-tetrafluoroethane], in the series with Rattus norvegicus [2], the LD0 was greater than 2250 mg/kg. The same compound gave an LC50 with Mus musculus of 4.89e+06 mg/m3.
For `Clc1cc2oc3cc(Cl)c(Cl)cc3c2cc1Cl` [2,3,7,8-Tetrachlorodibenzofuran], in the series on Gallus sp., the LOAEL (commonly the lowest tested level that showed an adverse finding) is 1e-05 mg/kg-day and the NOAEL (commonly the highest tested level that showed no adverse finding) came to 1e-06 mg/kg-day.
As to `FC(C(F)C(F)(F)C(F)(F)F)C(F)(F)F` (stereo not given) [2H,3H-Decafluoropentane], the LOAEL came to 103000 mg/m3 in the series with Canidae; 20000 mg/m3 in the series with Rattus norvegicus [3] (setting [8]); 35800 mg/m3 in the series on Rattus norvegicus [3] (setting [9]); 36100 mg/m3 in the series on Rattus norvegicus [3] (setting [10]); 36100 mg/m3 in the series with Rattus norvegicus [3] (setting [11]); 36100 mg/m3 in the series with Rattus norvegicus [3] (setting [12]). Besides, the LOAEL stood at 20600 mg/m3 in the series with Rattus norvegicus [3] (setting [13]), 36100 mg/m3 in the series with Rattus norvegicus [3] (setting [14]) and 20600 mg/m3 with Rattus norvegicus [3] (setting [15]). In addition, the NOAEL in the series with Canidae is 51500 mg/m3; in the series on Rattus norvegicus [3] (reproduction developmental, duration: 9 days, F, Crl:CD(SD), generation: P0, P0: Ovary: Corpora Lutea + P0: Uterus: Implantation + P0: Uterus: Uterine Weight, Gravid), 35800 mg/m3; with Rattus norvegicus [3] (setting [8]) it was 5170 mg/m3; in the series on Rattus norvegicus [3] (reproduction developmental, duration: 9 days, M/F, Crl:CD(SD), generation: F1, F1: Multi-Organ: Soft Tissue Examinations + F1: Skeleton: Skeletal Examinations + F1: Uterus: Resorptions, Early + F1: Uterus: Resorptions, …), 35800 mg/m3; in the series with Rattus norvegicus [3] (setting [9]), 20000 mg/m3; with Rattus norvegicus [3] (reproduction developmental, duration: 107 days, M, Crj:CD, generation: P0, P0: Liver: Liver Weight, Absolute + P0: Liver: Liver Weight, Relative + P0: Pituitary: Pituitary Gland Weight, Absolute + P0: Pituitary: …) it was 36100 mg/m3. In addition, the NOAEL in the series with Rattus norvegicus [3] (setting [10]) was 20600 mg/m3; in the series on Rattus norvegicus [3] (setting [11]), 20600 mg/m3; in the series with Rattus norvegicus [3] (reproduction developmental, duration: 121 days, F, Crl:CD(SD), generation: P0, P0: Uterus: Implantation + P0: Whole Body: Fertility Index + P0: Whole Body: Maternal Body Weight + P0: Whole Body: Maternal Body Weight …), 36100 mg/m3; in the series with Rattus norvegicus [3] (reproduction developmental, duration: 121 days, M/F, Crl:CD(SD), generation: F1, F1: Whole Body: Necropsy Appeared Normal + F1: Whole Body: Pup Weight Relative to Litter + F1: Whole Body: Survival + F1: Whole Body: …), 36100 mg/m3; in the series on Rattus norvegicus [3] (subchronic, duration: 90 days, F, Crl:CD(SD) BR, Adrenal: Adrenal Gland Histopathology + Adrenal: Adrenal Gland Weight, Absolute + Adrenal: Adrenal Gland Weight, Relative + Brain: Brain …) it was 36100 mg/m3; in the series on Rattus norvegicus [3] (setting [12]) it was 20600 mg/m3. In addition, the NOAEL in the series on Rattus norvegicus [3] (setting [13]) is 5150 mg/m3; in the series with Rattus norvegicus [3] (subchronic, duration: 90 days, M, Crl:CD(SD) BR, Adrenal: Adrenal Gland Histopathology + Adrenal: Adrenal Gland Weight, Absolute + Adrenal: Adrenal Gland Weight, Relative + Brain: Brain …), 36100 mg/m3; in the series on Rattus norvegicus [3] (setting [14]) it was 20600 mg/m3; in the series on Rattus norvegicus [3] (setting [15]) it was 5150 mg/m3.
As to `C=CC=O` [Acrolein], the LOAEL in the series with Rattus norvegicus [4] came out at 0.917 mg/m3; in the series on Homo sapiens, 0.688 mg/m3; in the series with Rattus norvegicus [6] (subchronic, inhalation, nasal lesions), 0.9 mg/m3. Also, the NOEL with Rattus norvegicus [5] (F) was less than 0.75 mg/kg-day; in the series with Rattus norvegicus [5] (M) it was 1.25 mg/kg-day. The compound further displayed an NOAEL in the series on Rattus norvegicus [6] (chronic, oral, gavage, reduced survival) of 0.05 mg/kg-day. This compound also registered an FEL with Rattus norvegicus [7] of 0.5 mg/kg-day.
